The values that follow come from article PMC10609270 (Molecules, 2023).

A short description of data set [1]: in vitro. To be noted: African green monkey.
The test system of data set [2] is ACE2. It is filed as cell-based, African green monkey. To be noted: compounds at IC50 (50 μM for 9); for ACE2 levels compared to vehicle: infected Vero CCL-81, Western blot; for ACE2 Levels (Vero CCL-81 Monkey Cells): infected cells.
Data set [3] relates to A549 cells. The data set is described as follows: Sulforhodamine B (SRB) cytotoxicity assay in A549 cells. It is filed as cell-based, human. To be noted: for Cytotoxicity in A549 human lung cells: 48 h, SRB, five serial dilutions. On the procedure: (§1) To determine the cytotoxic effect of the tested compounds, the SRB assay was performed according to the previously described protocols. The concentration of each compound that caused 50% of cell growth inhibition (GI50) was determined from the dose response curve. A549 cells were plated in 96-well plates at a previously determined optimal cell concentration (5 × 10^4 cells/mL) and incubated for 24 h. Then, cells were treated with different concentrations of the tested compounds for 48 h. The following procedure was accomplished as previously described. Using the Gen5^TM software (version 1.04.5), the absorbance was measured at 510 nm in a multiplate reader (Synergy^TM Mx, Biotek Instruments Inc., Winooski, VT, USA).
On the technique in general: Sulforhodamine B stains cellular protein and so reports cell mass.

For data set [4], the system named is spike protein. It is filed as cell-based, SARS-CoV-2.
The test system of data set [5] is Vero CCL-81 cells.
For data set [6], the system named is Vero CCL-81 cells. The data set is described as follows: cells. Conditions: non-infected Vero CCL-81, 48 h; for IC50: Chlorocebus sabaeus, DAPI, read-out: IC50 (ñ inf), relative cell nucleus number. It is filed as cell-based, African green monkey.
The test system of data set [7] is SARS-CoV-2. It is filed as cell-based.
For data set [8], the system named is ACE2. The data set is described as follows: ACE2 expression levels in MDA-MB-231 cells (Western blot). It is filed as cell-based, human. Conditions: 10 μM, 48 h. On the procedure: For protein expression analysis, MDA-MB-231 and Vero CCL-81 cells were seeded in 6-well plates and incubated for 24 h. Then, the cells were treated with the tested compounds at 10 μM or at their respective IC50. Cell pellets were collected after 48 h incubation, and the following lysis, quantification, and Western Blot procedures were performed as previously described, except for the following points: (i) no phosphatase inhibitor was used; (ii) a total of 15 μg of protein lysates obtained from MDA-MB-231 cells treatment or 50 μg of protein lysates obtained from Vero CCL-81 cells were loaded and separated in 10% SDS-Page gels; (iii) the transference to a nitrocellulose membrane (GE Healthcare Life science, Chalfont St Giles, UK; GE10600002) occurred for 1 h 45 min at 100 V; (iv) the primary antibodies (1:2000) used were: mouse anti-ACE2 monoclonal antibody (CL4035; Thermo Fischer Scientific; Waltham, MA, USA) and mouse anti-actin (sc-47778; Santa Cruz Biotechnology, Dallas, TX, USA).
Background: Immunoblotting shows a protein as a band on a membrane.

Data set [9] deals with SARS-CoV-2. The data set is described as follows: microbe, parasite or virus in culture. It is filed as cell-based.
Data set [10] relates to Vero CCL-81 cells. In words: cells. Conditions: Chlorocebus sabaeus, 48 h, read-out: IC50 (inf), relative cell nucleus number.
Data set [11] in a line: Sulforhodamine B (SRB) cytotoxicity assay in A549 cells. It is filed as cell-based, human. To be noted: human, A549 cells; SRB assay, 48 h; read-out: Cytotoxic IC50 (A549 Human Lung Cells). As for the experimental part: as §1
Where [12] appears, read: Severe acute respiratory syndrome coronavirus 2, in Primates, 48 h, read-out: Antiviral IC50 (Vero CCL-81 Monkey Cells).
[13] abbreviates: Homo sapiens, A549, 48 h, read-out: GI50 (concentration that inhibits 50% of cell growth), A549, 48 h, SRB assay.

Molecules are shown by their SMILES. Entries after “also recorded” stand apart in the source; their conditions may differ. Where two headings read alike, the source gives them in different places.

Broadly, the IC50 is the concentration that inhibits the measured activity by half. As to `Cc1ccnc(NS(=O)(=O)c2ccc(NC3c4ccccc4Oc4ccccc43)cc2)n1` [Compound 1], the IC50 in data set [1] was 18.4 µM; in [6] it was 28.9 µM; in data set [9] (setting [12]) it was 12.6 µM. The “ACE2 levels compared to vehicle” value in data set [2] was “did not alter ACE2 expression significantly”. For the same compound, the “ACE2 Levels (Vero CCL-81 Monkey Cells)” value in data set [2] was “−”. Moreover, the “Cytotoxicity in A549 human lung cells” value in [3] is listed as “did not exhibited cytotoxicity at the tested concentrations”. The “GI50 (concentration that inhibits 50% of cell growth)” value in [3] (A549, 48 h, SRB assay) was “not reached with the concentrations tested”. For the same compound, the “Levels of spike protein compared to vehicle” value in data set [4] was “significantly decreased”. Also, the “Cytotoxicity in infected Vero CCL-81 cells (number of cell nuclei)” value (“Cytotoxicity … (number of cell nuclei)” below) in data set [5] is on record as “some cytotoxicity”. In addition, in [7], the Viral titer is 1.4 × 10^3 FFU/mL. For the same compound, the “ACE2 expression levels in MDA-MB-231 cells” value (shortened to “ACE2 expression levels”) in data set [8] is given as “did not significantly affect”.

For `O=c1c2ccc(OCc3cn(C4OC(CO)C(O)C(O)C4O)nn3)cc2oc2cc(OCc3cn(C4OC(CO)C(O)C(O)C4O)nn3)ccc12` (stereo not shown) [Compound 6], in data set [9], the “Effect on cell infection by SARS-CoV-2” value is listed as “did not inhibit cell infection”.

Turning to `Cc1ccc(C(=O)Nc2ccc(CN3CCN(C)CC3)c(C(F)(F)F)c2)cc1C#Cc1cnc2cccnn12` [Ponatinib, reference compound], the IC50 in data set [10] came to 0.7 µM; in [6], 1.36 µM; in data set [9] (Severe acute respiratory syndrome coronavirus 2, 48 h, read-out: IC50(viral), relative number of infected cells), 0.93 µM. Besides, the “Cytotoxicity … (number of cell nuclei)” value in data set [5] is reported as “some cytotoxicity”. Also, the “Effect on cell infection by SARS-CoV-2” value in data set [9] is listed as “did not inhibit cell infection”.

In the case of `O=c1c2ccc(NCc3ccccc3)cc2oc2cc(OS(=O)(=O)C(F)(F)F)ccc12` [Compound 10], in [6], the “Relative cell number of non-infected cells” value was “increased the relative cell number of non-infected cells”. Besides, the “Effect on cell infection by SARS-CoV-2” value in data set [9] is recorded as “did not inhibit cell infection”.

As to `Cc1cc(C)nc(NS(=O)(=O)c2ccc(NC3c4ccccc4Oc4ccccc43)cc2)n1` [Compound 2], the IC50 came out at 17.2 µM in data set [1], 19.8 µM in data set [6] and 11.9 µM in [9] (setting [12]). Besides, the “ACE2 levels compared to vehicle” value in data set [2] is listed as “did not alter ACE2 expression significantly”. In addition, the “ACE2 Levels (Vero CCL-81 Monkey Cells)” value in data set [2] is given as “−”. Besides, the GI50 in data set [3] (setting [13]) is 31.9 µM. The IC50 at 48 h in data set [11] stood at 31.9 µM. Further, the “Levels of spike protein compared to vehicle” value in data set [4] was “significantly decreased”. The “Cytotoxicity … (number of cell nuclei)” value in data set [5] is given as “some cytotoxicity”. In data set [7], the Viral titer was 1.7 × 10^3 FFU/mL. In addition, the “ACE2 expression levels” value in data set [8] is on record as “did not significantly affect”.

As to `O=C(NC1c2ccccc2Oc2ccccc21)N(O)C1c2ccccc2Oc2ccccc21` [Compound 3], the “Cytotoxicity … (number of cell nuclei)” value in data set [5] is reported as “significantly higher cytotoxicity in infected cells compared to non-infected cells”. In addition, the “Relative cell number of non-infected cells” value in [6] is “increased the relative cell number of non-infected cells”. For the same compound, the “Effect on cell infection by SARS-CoV-2” value in data set [9] is “did not inhibit cell infection”.

Turning to `Nc1cccc2c1CCN(c1ccc3c(=O)c4ccc(N5CCc6c(N)cccc6C5)cc4oc3c1)C2` [Compound 5], the “Effect on cell infection by SARS-CoV-2” value in data set [9] is given as “did not inhibit cell infection”.

Turning to `O=c1c2ccc(OCc3cn(C4OC(COS(=O)(=O)O)C(OS(=O)(=O)O)C(OS(=O)(=O)O)C4OS(=O)(=O)O)nn3)cc2oc2cc(OCc3cn(C4OC(COS(=O)(=O)O)C(OS(=O)(=O)O)C(OS(=O)(=O)O)C4OS(=O)(=O)O)nn3)ccc12` (stereo not shown) [Compound 7], in data set [2], the “ACE2 levels compared to vehicle” value is reported as “slight decrease; also recorded: did not alter ACE2 expression significantly” and the “ACE2 Levels (Vero CCL-81 Monkey Cells)” value is listed as “−”. Also, in data set [3], the “Cytotoxicity in A549 human lung cells” value was “did not exhibited cytotoxicity at the tested concentrations”. Also, the “Levels of spike protein compared to vehicle” value in data set [4] is given as “did not cause any significant change”. For the same compound, in [5], the “Cytotoxicity … (number of cell nuclei)” value is “without causing cytotoxicity”. Also, the “Relative cell number of non-infected cells” value in [6] was “increased the relative cell number of non-infected cells”. Further, in data set [7], the “Viral Titer and Spike Levels (Vero CCL-81 Monkey Cells)” value is “−”; the Viral titer is on record as 6.1 × 10^3 FFU/mL. Further, in data set [9] (setting [12]), the IC50 was 31.7 µM.

For the compound `C[C@H](CCC(=O)N1CCOCC1)[C@H]1CC[C@H]2[C@@H]3CC[C@@H]4C[C@H](O)CC[C@]4(C)[C@H]3C[C@H](O)[C@]12C` [Compound 4], in data set [2], the “ACE2 levels compared to vehicle” value was “did not alter ACE2 expression significantly” and the “ACE2 Levels (Vero CCL-81 Monkey Cells)” value is on record as “−”. The GI50 in [3] (A549, 48 h, SRB assay, read-out: GI50 (concentration that inhibits 50% of cell growth)) was 19.8 µM. For the same compound, the GI50 in data set [3] (setting [13]) came to 19.8 µM. Besides, the concentration for half-maximal inhibition (IC50) at 48 h in [11] was 19.8 µM. Moreover, the “Levels of spike protein compared to vehicle” value in data set [4] is “significantly decreased”. Moreover, the “Relative cell number of non-infected cells” value in data set [6] is “increased the relative cell number of non-infected cells”. For the same compound, the Viral titer in data set [7] was 1.5 × 10^3 FFU/mL. Besides, the “ACE2 expression levels” value in [8] is “did not significantly affect”. In addition, the IC50 in data set [9] (setting [12]) is 24.1 µM.

Consider `O=c1c2ccc(OCc3cn(C4OC(COS(=O)(=O)O)C(OS(=O)(=O)O)C(OS(=O)(=O)O)C4OS(=O)(=O)O)nn3)cc2oc2cc(OCc3cn(C4OC(COS(=O)(=O)O)C(OS(=O)(=O)O)C(OS(=O)(=O)O)C4OS(=O)(=O)O)nn3)ccc12` (stereo not shown) [Compound 9], for which, in data set [2], the “ACE2 levels compared to vehicle” value is recorded as “did not alter ACE2 expression significantly” and the “ACE2 Levels (Vero CCL-81 Monkey Cells)” value is given as “−”. Also, the “Cytotoxicity in A549 human lung cells” value in data set [3] is recorded as “did not exhibited cytotoxicity at the tested concentrations”. The “Levels of spike protein compared to vehicle” value in data set [4] is given as “did not cause any significant change”. Moreover, in data set [5], the “Cytotoxicity … (number of cell nuclei)” value is “without causing cytotoxicity”. Further, the “Relative cell number of non-infected cells” value in data set [6] is given as “increased the relative cell number of non-infected cells”. Moreover, in [7], the “Viral Titer and Spike Levels (Vero CCL-81 Monkey Cells)” value is given as “−”; the Viral titer is given as 7.0 × 10^3 FFU/mL. Further, in data set [9], the “Effect on cell infection by SARS-CoV-2” value is reported as “reduced cell infection” and the “IC50(viral), relative number of infected cells” value is listed as “not reached at the tested concentrations”.

For the compound `O=c1c2ccccc2oc2c(O)c(OC3OC(COS(=O)(=O)O)C(OS(=O)(=O)O)C(OS(=O)(=O)O)C3OS(=O)(=O)O)ccc12` (stereo not shown) [Compound 8], in data set [9], the “Effect on cell infection by SARS-CoV-2” value was “did not inhibit cell infection”.
